Assay results published in patent US20240376163A1, “PEPTIDE FOR INHIBITING CALCINEURIN AND USE THEREOF” (Seoul National University R&DB Foundation, priority 2023, published 2024).

System: Jurkat T cells
Experiment: mRNA sequencing of activated Jurkat T cells
Type: cell-based, human
Conditions: P + I

C=CC[C@@H]1/C=C(\C)C[C@H](C)C[C@H](OC)[C@H]2O[C@@](O)(C(=O)C(=O)N3CCCC[C@H]3C(=O)O[C@H](/C(C)=C/[C@@H]3CC[C@@H](O)[C@H](OC)C3)[C@H](C)[C@@H](O)CC1=O)[C@H](C)C[C@@H]2OC [FK506, Tacrolimus, reference compound]
MSMO1 FPKM (Jurkat T cells): 59.655 FPKM
MT2A FPKM (Jurkat T cells): 369.658 FPKM
MXD3 FPKM (Jurkat T cells): 17.861 FPKM
MYB FPKM (Jurkat T cells): 58.524 FPKM
MZB1 FPKM (Jurkat T cells): 22.015 FPKM
N4BP3 FPKM (Jurkat T cells): 1.739 FPKM
NAA16 FPKM (Jurkat T cells): 3.527 FPKM
NCKAP1 FPKM (Jurkat T cells): 8.582 FPKM
NCOA3 FPKM (Jurkat T cells): 9.949 FPKM
NDRG1 FPKM (Jurkat T cells): 126.361 FPKM
NDRG2 FPKM (Jurkat T cells): 2.881 FPKM
NEDD9 FPKM (Jurkat T cells): 3.748 FPKM
NFATC1 FPKM (Jurkat T cells): 3.793 FPKM
NFKB1 FPKM (Jurkat T cells): 34.242 FPKM
NFKB2 FPKM (Jurkat T cells): 49.22 FPKM
NLRC3 FPKM (Jurkat T cells): 7.789 FPKM
NME4 FPKM (Jurkat T cells): 16.395 FPKM
NOTCH2 FPKM (Jurkat T cells): 10.308 FPKM
NOTCH3 FPKM (Jurkat T cells): 0.902 FPKM
NPDC1 FPKM (Jurkat T cells): 4.328 FPKM
NR4A3 FPKM (Jurkat T cells): 1.927 FPKM
NREP FPKM (Jurkat T cells): 9.925 FPKM
NRP1 FPKM (Jurkat T cells): 14.572 FPKM
NSG1 FPKM (Jurkat T cells): 4.302 FPKM
NSMF FPKM (Jurkat T cells): 3.164 FPKM
NT5E FPKM (Jurkat T cells): 8.91 FPKM
NTRK1 FPKM (Jurkat T cells): 0.836 FPKM
ODC1 FPKM (Jurkat T cells): 245.466 FPKM
OPTN FPKM (Jurkat T cells): 12.958 FPKM
OSBPL5 FPKM (Jurkat T cells): 3.354 FPKM
PAM FPKM (Jurkat T cells): 1.483 FPKM
PCNA-AS1 FPKM (Jurkat T cells): 70.937 FPKM
PDCD1 FPKM (Jurkat T cells): 1.377 FPKM
PDGFA FPKM (Jurkat T cells): 3.25 FPKM
PDGFC FPKM (Jurkat T cells): 2.292 FPKM
PDIA6 FPKM (Jurkat T cells): 123.669 FPKM
PDLIM1 FPKM (Jurkat T cells): 6.874 FPKM
PELI2 FPKM (Jurkat T cells): 11.262 FPKM
PEX5L FPKM (Jurkat T cells): 1.428 FPKM
PHACTR2 FPKM (Jurkat T cells): 2.927 FPKM
PHLDB2 FPKM (Jurkat T cells): 3.898 FPKM
PI16 FPKM (Jurkat T cells): 17.07 FPKM
PKIG FPKM (Jurkat T cells): 12.411 FPKM
PKM FPKM (Jurkat T cells): 1736.037 FPKM
PLAC8 FPKM (Jurkat T cells): 3.158 FPKM
PLEC FPKM (Jurkat T cells): 21.747 FPKM
PLS3 FPKM (Jurkat T cells): 0.052 FPKM
POTEE FPKM (Jurkat T cells): 1.42 FPKM
POU2AF1 FPKM (Jurkat T cells): 2.274 FPKM
POU2F2 FPKM (Jurkat T cells): 3.317 FPKM
PPIF FPKM (Jurkat T cells): 50.291 FPKM
PPP1R15A FPKM (Jurkat T cells): 77.478 FPKM
PPP1R16B FPKM (Jurkat T cells): 29.659 FPKM
PRDM8 FPKM (Jurkat T cells): 39.913 FPKM
PRNP FPKM (Jurkat T cells): 39.685 FPKM
PSMB10 FPKM (Jurkat T cells): 104.49 FPKM
PTPN6 FPKM (Jurkat T cells): 20.906 FPKM
PTPN7 FPKM (Jurkat T cells): 93.59 FPKM
PXYLP1 FPKM (Jurkat T cells): 5.01 FPKM
QPRT FPKM (Jurkat T cells): 13.402 FPKM
RAB37 FPKM (Jurkat T cells): 2.455 FPKM
RASGRP1 FPKM (Jurkat T cells): 4.464 FPKM
RASGRP2 FPKM (Jurkat T cells): 3.002 FPKM
RB1 FPKM (Jurkat T cells): 62.321 FPKM
RCBTB2 FPKM (Jurkat T cells): 13.008 FPKM
RCOR2 FPKM (Jurkat T cells): 1.361 FPKM
RGS2 FPKM (Jurkat T cells): 3.365 FPKM
RHOU FPKM (Jurkat T cells): 1.51 FPKM
RNF19A FPKM (Jurkat T cells): 12.334 FPKM
RNF212 FPKM (Jurkat T cells): 1.059 FPKM
RORA FPKM (Jurkat T cells): 2.502 FPKM
RRAS2 FPKM (Jurkat T cells): 18.257 FPKM
RTN4R FPKM (Jurkat T cells): 2.449 FPKM
RUNX1 FPKM (Jurkat T cells): 37.963 FPKM
RUNX3 FPKM (Jurkat T cells): 23.624 FPKM
SASH3 FPKM (Jurkat T cells): 59.349 FPKM
SBK1 FPKM (Jurkat T cells): 9.239 FPKM
SCG2 FPKM (Jurkat T cells): 159.394 FPKM
SCHIP1 FPKM (Jurkat T cells): 1.535 FPKM
SEPT3 FPKM (Jurkat T cells): 1.089 FPKM
SEPT6 FPKM (Jurkat T cells): 55.091 FPKM
SEPT9 FPKM (Jurkat T cells): 55.265 FPKM
SERINC5 FPKM (Jurkat T cells): 3.184 FPKM
SERPINB8 FPKM (Jurkat T cells): 23.788 FPKM
SERPINE2 FPKM (Jurkat T cells): 3.936 FPKM
SERTAD1 FPKM (Jurkat T cells): 16.162 FPKM
SGK1 FPKM (Jurkat T cells): 76.683 FPKM
SH2D1A FPKM (Jurkat T cells): 23.649 FPKM
SH2D2A FPKM (Jurkat T cells): 20.658 FPKM
SH3TC1 FPKM (Jurkat T cells): 1.562 FPKM
SIVA1 FPKM (Jurkat T cells): 50.269 FPKM
SLAMF1 FPKM (Jurkat T cells): 0.217 FPKM
SLAMF7 FPKM (Jurkat T cells): 3.121 FPKM
SLAMF8 FPKM (Jurkat T cells): 5.282 FPKM
SLC22A1 FPKM (Jurkat T cells): 7.005 FPKM
SLC27A2 FPKM (Jurkat T cells): 41.996 FPKM
SLC29A4 FPKM (Jurkat T cells): 1.68 FPKM
SLC35E4 FPKM (Jurkat T cells): 0.952 FPKM
SLC35G2 FPKM (Jurkat T cells): 10.118 FPKM
SMAD1 FPKM (Jurkat T cells): 4.873 FPKM
SMOX FPKM (Jurkat T cells): 14.9 FPKM
SMPD1 FPKM (Jurkat T cells): 20.599 FPKM
SORBS1 FPKM (Jurkat T cells): 0.4 FPKM
SOX4 FPKM (Jurkat T cells): 76.17 FPKM
SPINT1 FPKM (Jurkat T cells): 1.948 FPKM
SPRY1 FPKM (Jurkat T cells): 4.074 FPKM
SPRY4 FPKM (Jurkat T cells): 9.613 FPKM
SPSB1 FPKM (Jurkat T cells): 10.137 FPKM
SPTBN2 FPKM (Jurkat T cells): 2.135 FPKM
SRGN FPKM (Jurkat T cells): 10.812 FPKM
SSBP2 FPKM (Jurkat T cells): 7.127 FPKM
ST3GAL6 FPKM (Jurkat T cells): 4.018 FPKM
STAT2 FPKM (Jurkat T cells): 37.805 FPKM
STAT3 FPKM (Jurkat T cells): 83.385 FPKM
STAU2 FPKM (Jurkat T cells): 7.124 FPKM
STMN3 FPKM (Jurkat T cells): 10.423 FPKM
STX1A FPKM (Jurkat T cells): 16.1 FPKM
SYK FPKM (Jurkat T cells): 7.044 FPKM
TAGAP FPKM (Jurkat T cells): 4.352 FPKM
TAL1 FPKM (Jurkat T cells): 22.337 FPKM
TAP2 FPKM (Jurkat T cells): 5.187 FPKM
TAPBPL FPKM (Jurkat T cells): 19.59 FPKM
TBC1D4 FPKM (Jurkat T cells): 12.549 FPKM
TBC1D5 FPKM (Jurkat T cells): 4.088 FPKM
TBKBP1 FPKM (Jurkat T cells): 16.894 FPKM
TCF3 FPKM (Jurkat T cells): 39.165 FPKM
TCF7 FPKM (Jurkat T cells): 13.065 FPKM
TCF12 FPKM (Jurkat T cells): 34.798 FPKM
TDRD9 FPKM (Jurkat T cells): 1.245 FPKM
TGFBR2 FPKM (Jurkat T cells): 36.615 FPKM
THEM6 FPKM (Jurkat T cells): 3.232 FPKM
THEMIS FPKM (Jurkat T cells): 33.406 FPKM
TIAF1 FPKM (Jurkat T cells): 12.479 FPKM
TIAM1 FPKM (Jurkat T cells): 8.466 FPKM
TIAM2 FPKM (Jurkat T cells): 0.27 FPKM
TLE1 FPKM (Jurkat T cells): 1.864 FPKM
TMCC3 FPKM (Jurkat T cells): 4.527 FPKM
TNFAIP3 FPKM (Jurkat T cells): 25.168 FPKM
TNFRSF10B FPKM (Jurkat T cells): 25.474 FPKM
TNFSF10 FPKM (Jurkat T cells): 24.883 FPKM
TNFSF14 FPKM (Jurkat T cells): 1.023 FPKM
TPM4 FPKM (Jurkat T cells): 202.311 FPKM
TPST2 FPKM (Jurkat T cells): 21.077 FPKM
TRAF3IP3 FPKM (Jurkat T cells): 15.012 FPKM
TRIB1 FPKM (Jurkat T cells): 5.422 FPKM
TRIM21 FPKM (Jurkat T cells): 45.856 FPKM
TTLL1 FPKM (Jurkat T cells): 3.69 FPKM
UBE2L6 FPKM (Jurkat T cells): 164.565 FPKM
UHRF1 FPKM (Jurkat T cells): 8.288 FPKM
VAMP1 FPKM (Jurkat T cells): 14.793 FPKM
VAT1 FPKM (Jurkat T cells): 44.696 FPKM
VAV1 FPKM (Jurkat T cells): 30.218 FPKM
WARS FPKM (Jurkat T cells): 105.541 FPKM
WDR76 FPKM (Jurkat T cells): 8.368 FPKM
XCL1 FPKM (Jurkat T cells): 0 FPKM
XCL2 FPKM (Jurkat T cells): 0 FPKM
XIRP1 FPKM (Jurkat T cells): 6.348 FPKM
XRCC6BP1 FPKM (Jurkat T cells): 9.744 FPKM
YPEL1 FPKM (Jurkat T cells): 5.628 FPKM
ZFP36L1 FPKM (Jurkat T cells): 153.648 FPKM
ZFP36L2 FPKM (Jurkat T cells): 13.343 FPKM
ZNF280D FPKM (Jurkat T cells): 2.345 FPKM
ZNF367 FPKM (Jurkat T cells): 2.354 FPKM
ZNF480 FPKM (Jurkat T cells): 7.174 FPKM
ZNF521 FPKM (Jurkat T cells): 2.011 FPKM
ZNF652 FPKM (Jurkat T cells): 2.631 FPKM
ZNF704 FPKM (Jurkat T cells): 0.014 FPKM
ZNF827 FPKM (Jurkat T cells): 1.521 FPKM
ZNFX1 FPKM (Jurkat T cells): 16.708 FPKM
ZP4 FPKM (Jurkat T cells): 0.462 FPKM
ZYX FPKM (Jurkat T cells): 127.794 FPKM
ADORA2A FPKM: 0.998 FPKM
AGK FPKM: 14.029 FPKM
ARHGEF3 FPKM: 8.637 FPKM
ASAP1 FPKM: 7.765 FPKM
ATG14 FPKM: 7.863 FPKM
ATP6V1B2 FPKM: 50.672 FPKM
BCL2L1 FPKM: 39.402 FPKM
C3 FPKM: 0.489 FPKM
C10orf54 FPKM: 0.382 FPKM
CABP1 FPKM: 1.201 FPKM
CCDC64 FPKM: 10.044 FPKM
CCL1 FPKM: 0 FPKM
CCL3 FPKM: 0 FPKM
CCL3L1 FPKM: 0 FPKM
CCL3L3 FPKM: 0 FPKM
CCL4 FPKM: 0 FPKM
CCL4L1 FPKM: 0.087 FPKM
CCL4L2 FPKM: 0.087 FPKM
CCL20 FPKM: 0 FPKM
CCND2 FPKM: 0.558 FPKM
CD27-AS1 FPKM: 5.11 FPKM
CD27 FPKM: 3.098 FPKM
CD55 FPKM: 6.015 FPKM
CD70 FPKM: 3.005 FPKM
CD97 FPKM: 19.394 FPKM
CD200 FPKM: 0 FPKM
COL27A1 FPKM: 4.463 FPKM
CREB5 FPKM: 0.577 FPKM
